System: glutamatergic neurons on the Brain-Chip
Test: Calcium imaging (Fluo-4 AM) of neuronal activity on the Brain-Chip
Format: cell-based, human
Conditions: NMDA and AMPA receptor inhibition (DAP5 and CNQX respectively), compared to control without inhibitors
Text: FIG. 30A Spontaneous activity was studied by means of calcium imaging, enabling the investigation of neuronal activity of single cells and the network as a whole. Fluo-4 AM, a calcium sensitive fluorescent dye, was loaded onto the cells, and intracellular calcium fluctuations were monitored over time using high-speed imaging. […] FIG. 38A-C Pharmacological Targeting of the Glutamatergic Neurons in the Brain-Chip. […] Scale bars=200 μm. […] FIG. 38A-C Pharmacological Targeting of the Glutamatergic Neurons in the Brain-Chip. […] Scale bars=200 μm.

Question: For `N#Cc1cc2c(cc1[N+](=O)[O-])=NC(=O)C(=O)N=2` [CNQX, 6-cyano-7-nitroquinoxaline-2,3-dione], which “effect on percentage of active neurons” value is on record?
Answer: reduced the percentage of active neurons
